# From patent US6329497A, “Sandramycin analogs” (The Scripps Research Institute, priority 1999, dated 2001)
# “Also recorded” adds a separate entry of the source. Like-named read-outs stand apart in the source and are kept apart here.
# Tests used:
# [1] = tested on: calf thymus DNA and 5'-d(GCATGC)2; experiment: DNA binding affinity trends over calf thymus DNA and 5'-d(GCATGC)2 (fluorescence quenching)
# Method: (§1) Apparent absolute DNA binding constants for 1-22 and related agents including luzopeptin A were obtained by measurement of the fluorescence quenching upon titration addition of calf thymus DNA or the deoxyoligonucleotides 5'-d(GCXXGC)2 where XX=AT, TA, GC, and CG. For each agent, the characteristic fluorescence excitation and emission spectra were recorded in 10 mM Tris-HCl, 75 mM NaCl (pH 7.4) buffer, FIG. 6. For the DNA binding assays which quantitate the fluorescence quenching, excitation outside the absorbance range of DNA was employed and the most intense fluorescence emission at a longer wavelength monitored. For assay of the DNA-induced fluorescence quenching of the agents, a 2 mL buffer solution of Tris-HCl (pH 7.4) and 75 mM NaCl was employed. For titration, small aliquots of DNA were added to solutions of the agents in Tris-HCl buffer (pH 7.4).
# (§2) Despite these precautions, the fluorescence for a number of the analog solutions decreased for several of analogs (11, 14, 17, 21 and 22) and the quality of the binding constants for these should be viewed with caution. […] The titrations were carried out with 15 min time intervals between DNA additions to allow binding equilibration. […] The titration fluorescence quenching was analyzed by Scatchard analysis (Scatchard, G. Ann. N. Y. Acad. Sci. 1949, 51, 660) with the following equation: rb /c=Kb n-Kb rb where rb is the number of agent molecules bound per DNA base-pair, c is the free drug concentration, Kb is the apparent association constant, and n is the number of agent binding sites per base-pair.
# A pronounced downward curvature in an infinite lattice such as calf thymus DNA is recognized to arise in part from neighbor exclusion where the binding of an agent excludes the subsequent binding at nearby sites. This exclusion manifests itself in the plot by a reduction in the apparent binding constant as the DNA lattice approaches saturation and the probability of finding a free site is diminished. In the calf thymus DNA studies, the binding also entails multiple classes of independent binding sites or modes. For simplicity, a linear fit of the high affinity binding sites was used to determine the binding constant attributable to bis-intercalation. For the deoxyoligonucleotides, the curvature can be more simply attributed to multiple classes of independent binding sites or binding modes. There are a number of mathematical methods to deconvolute the curved plot into such individual binding events. In the deoxyoligonucleotide studies, a non-linear fit described by Feldman was also used to deconvolute the curves. The model assumes one ligand with two binding types or sites. Since the number of binding sites is limited, we have interpreted this to indicate a high affinity bis-intercalation and a lower affinity binding potentially involving mono-intercalation. The formula was fit using the JMP^22 statistical fitting program using an initial approximation of the two n values and fitting for K1 and K2.
# After 5 min of stirring, an initial fluorescence reading was taken with minimum exposure to the excitation beam. […] The excitation and emission wavelengths used for each analog varied and can be found in FIG. 6. The results of the titration were analyzed by Scatchard analysis. The linear portion of the Scatchard plot was used to determine the high affinity binding constants. In the case of the deoxyoligonucleotide study, a non-linear fit of the curve as described in the text was also used to determine the high affinity binding constant (Feldman, H. A. Anal. Biochem. 1972, 48, 317).
# L1210 cell line = experiment: In vitro cytotoxic activity, L1210; type: cell-based
# [2] = target: T1, HIV-1 reverse transcriptase (Human immunodeficiency virus type 1 group M subtype B, UniProt P04585); experiment: Inhibition of HIV-1 reverse transcriptase; type: biochemical
# Method: The assay was performed according to an available procedure (Goldman, M. E.; Salituro, G. S.; Bowen, J. A.; Williamson, J. M.; Zink, D. L.; Schleif, W. A.; Emini, E. A. Mol. Pharmacol. 1990, 38, 20) with slight modification. A 45 L solution of reaction buffer containing 55 mM Tris·HCl, pH 8.2, 80 mM potassium chloride, 12 mM MgCl2, 1 mM DTT, 50 M EGTA, 2.5 g/mL rA·dT, 0.5 Ci of [^3 H]TTP, 10 M TTP, 1 mg/mL BSA, and 0.01% Triton X-100 was added to a well in a filter cluster plate (Millipore MAHV N45). The reverse transcription reaction was initiated upon addition of the reverse transcriptase (1 unit; 1 unit=10 pmol of [^3 H]TMP incorporated/60 min at 37° C.). The plate was incubated at 37° C. for 90 min. The plate was then placed on ice and 200 µL of 13% trichloroacetic acid and 10 mM sodium pyrophosphate was added to each well. The plate was chilled for 2 h and the liquid vacuumed out through the filter using a Millipore manifold (Millipore MAVM 09601). The precipitate was washed with 1 M and 10 mM sodium pyrophosphate twice. The filter was punched out and placed in a scintillation vial. 4 mL of cocktail was added. Radioactivity was determined by liquid scintillation counting.
# The effects of sandramycin and its analogs on HIV-1 reverse transcriptase were determined by incubating the agents and the rA·dT containing buffer at 25° C. for 30 min prior to addition of the reverse transcriptase. Reactions containing no agents were used as controls, and those lacking the transcriptase were used as blanks.
# [3] = Solubility of the agents in assay buffer / water; type: physicochemical; settings: aqueous Tris-HCl/NaCl buffer pH 7.4
# calf thymus DNA [4] = experiment: DNA binding constants by fluorescence quenching, calf thymus DNA
# Method: as §1, with “For titration, small aliquots of DNA were added to solutions of the agents in Tris-HCl buffer (pH 7.4).” left out
# Despite these precautions, the fluorescence for a number of the analog solutions decreased for several of analogs (11, 14, 17, 21 and 22) and the quality of the binding constants for these should be viewed with caution. […] The titration fluorescence quenching was analyzed by Scatchard analysis (Scatchard, G. Ann. N. Y. Acad. Sci. 1949, 51, 660) with the following equation: rb /c=Kb n-Kb rb where rb is the number of agent molecules bound per DNA base-pair, c is the free drug concentration, Kb is the apparent association constant, and n is the number of agent binding sites per base-pair. […]
# 5'-d(GCATGC)2 = experiment: DNA binding by fluorescence quenching, 5'-d(GCATGC)2; settings: for DNA binding affinity, in words: 5'-d(GCATGC)2, relative to 1 and 4
# Method: as §1, §2
# A pronounced downward curvature in an infinite lattice such as calf thymus DNA is recognized to arise in part from neighbor exclusion where the binding of an agent excludes the subsequent binding at nearby sites. This exclusion manifests itself in the plot by a reduction in the apparent binding constant as the DNA lattice approaches saturation and the probability of finding a free site is diminished. In the calf thymus DNA studies, the binding also entails multiple classes of independent binding sites or modes. […]
# calf thymus DNA [5] = settings: cited from earlier work
# [6] = target: T1, HIV-1 reverse transcriptase; settings: cited from earlier work
compound,measurement,setting,value
"CC(C)[C@H]1C(=O)OC[C@@H](NC(=O)c2cc3ccccc3cc2O)C(=O)N2CCCC[C@H]2C(=O)NCC(=O)N(C)CC(=O)N(C)[C@@H](C(C)C)C(=O)OC[C@@H](NC(=O)c2cc3ccccc3cc2O)C(=O)N2CCCC[C@H]2C(=O)NCC(=O)N(C)CC(=O)N1C [compound 5, (N-(3-Hydroxynaphthyl-2-carbonyl)-D-Ser-Pip-Gly-Sar-NMe-Val)2(Serine Hydroxyl) Dilactone]","DNA binding affinity, in words",[1],substantially less effective than all agents in the series
same,"cytotoxic potency, fold less potent than 1",L1210 cell line,10000
same,"HIV-1 reverse transcriptase inhibition, in words",[2],much less effective
same,solubility in the fluorescence quenching assay,[3],not sufficiently soluble; also recorded: limited solubility
CC(C)[C@H]1C(=O)OC[C@@H](NC(=O)c2ccc3ccccc3c2)C(=O)N2CCCC[C@H]2C(=O)NCC(=O)N(C)CC(=O)N(C)[C@@H](C(C)C)C(=O)OC[C@@H](NC(=O)c2ccc3ccccc3c2)C(=O)N2CCCC[C@H]2C(=O)NCC(=O)N(C)CC(=O)N1C [compound 7],"DNA binding affinity, in words",[1],substantially less effective than all agents in the series
same,"cytotoxic potency, fold less potent than 4",L1210 cell line,2000
same,"cytotoxic potency, fold less potent than 5",L1210 cell line,2
same,"HIV-1 reverse transcriptase inhibition, in words",[2],much less effective
same,solubility in the fluorescence quenching assay,[3],not sufficiently soluble; also recorded: limited solubility
CC(C)C1C(=O)OCC(NC(=O)c2ncccc2O)C(=O)N2CCCCC2C(=O)NCC(=O)N(C)CC(=O)N(C)C(C(C)C)C(=O)OCC(NC(=O)c2ncccc2O)C(=O)N2CCCCC2C(=O)NCC(=O)N(C)CC(=O)N1C (stereo not shown) [compound 8],drop in DNA binding affinity,calf thymus DNA [4]; removal of fused benzene ring,7.11 kJ/mol
same,drop in DNA binding affinity,"5'-d(GCATGC)2; 5'-d(GCATGC)2, removal of fused benzene ring",9.62 to 10.9 kJ/mol
same,"cytotoxic potency, fold less potent than 1",L1210 cell line,4000
same,"HIV-1 reverse transcriptase inhibition, in words",[2],much less effective
"CC(C)C1C(=O)OCC(NC(=O)c2cnc3ccccc3n2)C(=O)N2CCCCC2C(=O)NCC(=O)N(C)CC(=O)N(C)C(C(C)C)C(=O)OCC(NC(=O)c2cnc3ccccc3n2)C(=O)N2CCCCC2C(=O)NCC(=O)N(C)CC(=O)N1C [compound 18, (N-(Quinoxalyl-2-carbonyl)-D-Ser-Pip-Gly-Sar-NMe-Val)2 (Serine Hydroxyl) Dilactone]","cytotoxic potency, fold less potent than 4",L1210 cell line,approximately 10
same,"cytotoxic potency, fold less potent than 13",L1210 cell line,approximately 10
same,"cytotoxic potency, fold more potent than 19",L1210 cell line,300
same,"HIV-1 reverse transcriptase inhibition, in words",[2],roughly maintain the HIV-1 reverse transcriptase inhibitory potency of 1; also recorded: Comparable but slightly less potent inhibition
same,fold less potent than sandramycin,[2],3
same,solubility in the fluorescence quenching assay,[3],not sufficiently soluble; also recorded: limited solubility
CC[n+]1c(-c2ccccc2)c2cc(N)ccc2c2ccc(N)cc21 [ethidium bromide],binding constant employed to calculate the absolute binding constant,calf thymus DNA [5],450000 M⁻¹
"COc1ccc2nc(C(=O)N[C@@H]3COC(=O)[C@H](C(C)(C)O)N(C)C(=O)CN(C)C(=O)CNC(=O)[C@@H]4[C@@H](OC(C)=O)CC=NN4C(=O)[C@H](NC(=O)c4nc5ccc(OC)cc5cc4O)COC(=O)[C@H](C(C)(C)O)N(C)C(=O)CN(C)C(=O)CNC(=O)[C@@H]4[C@@H](OC(C)=O)CC=NN4C3=O)c(O)cc2c1 [luzopeptin A, reference compound]",fold higher than values reported elsewhere,[2],20-30
same,IC50,[2]; range given for both agents,0.13 to 0.19 µM
same,IC50,[6]; read-out: IC50 reported elsewhere,0.007 µM
COc1ccc2nc(C(=O)N[C@@H]3COC(=O)[C@H](C(C)(C)O)N(C)C(=O)CN(C)C(=O)CNC(=O)[C@@H]4[C@@H](OC(=O)[C@@H]5C[C@H]5C)CC=NN4C(=O)[C@H](NC(=O)c4cnc5cc(OC)ccc5n4)COC(=O)[C@H](C(C)(C)O)N(C)C(=O)CN(C)C(=O)CNC(=O)[C@@H]4C(OC(C)=O)CC=NN4C3=O)cnc2c1 (stereo partly shown) [quinoxapeptin B],fold less potent than quinoxapeptin A and luzopeptin A,[6],approximately 2
(N-(Iso-quinolinyl-3-carbonyl)-D-Ser-Pip-Gly-Sar-NMe-Val)2 (Serine Hydroxyl) Dilactone [compound 21],"DNA binding affinity, in words",5'-d(GCATGC)2,substantially less effective
same,"DNA binding affinity, in words",[1],comparable to that of the monointercalator 24
same,"HIV-1 reverse transcriptase inhibition, in words",[2],much less effective
(N-(Isoquinolinyl-1-carbonyl)-D-Ser-Pip-Gly-Sar-NMe-Val)2 (Serine Hydroxyl) Dilactone [compound 22],"DNA binding affinity, in words",calf thymus DNA [4],comparable to 4
same,"DNA binding affinity, in words",5'-d(GCATGC)2,substantially less effective
same,"DNA binding affinity, in words",[1],comparable to that of the monointercalator 24
same,"HIV-1 reverse transcriptase inhibition, in words",[2],much less effective
